Assay results published in patent publication US12129221B2, “Difluoro phenyl amide RIP1 inhibitor” (SIRONAX LTD, priority 2018, dated 2024).

Experiments:
[1] = Hepatocyte stability, dog; assay type: in vitro ADME; details: dog, hepatocytes, read-out: Dog T1/2
Source text: (§1) Representative Metabolic Stability Data II, +, Extrapolated.

[2] = Hepatocyte stability, mini-pig; assay type: in vitro ADME; details: minipig, hepatocytes, read-out: mini-pig T1/2
Source text: as §1

PK in dog = details: in vivo
[3] = Hepatocyte stability, rat; assay type: in vitro ADME; details: rat, hepatocytes, read-out: Rat T1/2
Source text: as §1

PK in rat = experiment: PK in rat; set-up: species or system SD rat; details: Sprague-Dawley, in vivo; for half-life / bioavailability: rat
Source text: Representative PK Date of Pro-Drug Compounds

PK in monkey = details: in vivo
HT-29 = experiment: EC50 in HT-29; assay type: cell-based; details: Homo sapiens
[4] = Liver microsome stability, human; assay type: in vitro ADME; details: liver microsomes, liver microsome stability, read-out: Human T1/2
Source text: (§2) Representative Metabolic Stability Data I; +, Extrapolated.

[5] = Liver microsome stability, mini-pig; assay type: in vitro ADME; details: minipig, liver microsomes, read-out: mini-pig T1/2
Source text: as §2

[6] = Hepatocyte stability, human; assay type: in vitro ADME; details: human, hepatocytes, read-out: Human T1/2
Source text: as §1

[7] = Liver microsome stability, rat; assay type: in vitro ADME; details: liver microsomes
Source text: as §2

[8] = Hepatocyte stability, mouse; assay type: in vitro ADME; details: mouse, hepatocytes, read-out: Mouse T1/2
Source text: as §1

[9] = Liver microsome stability, mouse; assay type: in vitro ADME; details: liver microsomes
Source text: as §2

[10] = Hepatocyte stability, monkey; assay type: in vitro ADME; details: monkey, hepatocytes, read-out: Monkey T1/2
Source text: as §1

[11] = Liver microsome stability, monkey; assay type: in vitro ADME; details: monkey, liver microsomes
Source text: as §2

PK in mouse = details: in vivo
[12] = Liver microsome stability, dog; assay type: in vitro ADME; details: dog, liver microsomes
Source text: as §2

[13] = Hepatocyte Stability, comparison table
[14] = po, 10 mg/kg, SD rat, PO 10 mg/kg

half-life [1, 13]: 14 min | half-life ([1]; Hepatocyte stability): 13.9 min | half-life [2]: 23.1 min | AUC(0-inf) (PK in dog; IV 3 mg/kg): 1960 ng·h/mL | clearance (PK in dog; IV 3 mg/kg): 25.6 mL/min/kg | half-life (PK in dog; IV 3 mg/kg): 72 min | Vd (PK in dog; IV 3 mg/kg, read-out: Vdss): 1.24 L/kg | AUC(0-inf) (PK in dog; PO 10 mg/kg): 136 ng·h/mL | Cmax (PK in dog; PO 10 mg/kg): 171 ng/mL | bioavailability (PK in dog; PO 10 mg/kg): 1.95% | half-life (PK in dog; PO 10 mg/kg): 81 min | half-life [3, 13]: 14 min | half-life ([3]; Hepatocyte stability): 14.2 min | AUC(0-inf) (PK in rat; Rat, IV 2 mg/kg): 520 ng·h/mL | clearance (PK in rat; Rat, IV 2 mg/kg): 64 mL/min/kg | Vd (PK in rat; Rat, IV 2 mg/kg, read-out: Vdss): 1.2 L/kg | AUC(0-inf) (PK in rat; Rat, PO 10 mg/kg): 214 ng·h/mL | Cmax (PK in rat; Rat, PO 10 mg/kg): 148 ng/mL | AUC (PK in rat; SD rat, PO 10 mg/kg): 29.9 ng·h/mL | half-life (PK in rat; iv, 2 mg/kg, IV 2 mg/kg): 18 min | bioavailability (PK in rat; po, 10 mg/kg, PO 10 mg/kg): 1.2% | half-life (PK in rat; po, 10 mg/kg, PO 10 mg/kg): 48 min | bioavailability (PK in rat; [14]): 1.15% | half-life (PK in rat; [14]): 38.4 min | AUC(0-inf) (PK in monkey; IV 2 mg/kg): 1940 ng·h/mL | clearance (PK in monkey; IV 2 mg/kg): 17.6 mL/min/kg | half-life (PK in monkey; IV 2 mg/kg): 46.2 min | Vd (PK in monkey; IV 2 mg/kg, read-out: Vdss): 0.86 L/kg | AUC(0-inf) (PK in monkey; PO 10 mg/kg): 374 ng·h/mL | Cmax (PK in monkey; PO 10 mg/kg): 185 ng/mL | bioavailability (PK in monkey; PO 10 mg/kg): 2.6% | half-life (PK in monkey; PO 10 mg/kg): 43.8 min | EC50 (HT-29): 25 nM | half-life [4]: 204 min | half-life [5]: 53.5 min | half-life [6, 13]: 73 min | half-life ([6]; Hepatocyte stability): 73.1 min | half-life ([7]; comparison table with WO2016/101885 compounds, read-out: Rat Liver Microsome T1/2): 25 min | half-life ([7]; liver microsome stability, read-out: Rat T1/2): 25.1 min | half-life [8, 13]: 24 min | half-life ([8]; Hepatocyte stability): 24.4 min | half-life ([9]; comparison table with WO2016/101885 compounds, read-out: Mouse Liver Microsome T1/2): 32 min | half-life ([9]; liver microsome stability, read-out: Mouse T1/2): 32.5 min | half-life [10, 13]: 19 min | half-life ([10]; Hepatocyte stability): 18.9 min | half-life ([11]; comparison table with WO2016/101885 compounds, read-out: Monkey Liver Microsome T1/2): 3 min | half-life ([11]; liver microsome stability, read-out: Monkey T1/2): 2.95 min | AUC(0-inf) (PK in mouse; IV 2 mg/kg): 323 ng·h/mL | clearance (PK in mouse; IV 2 mg/kg): 103 mL/min/kg | half-life (PK in mouse; IV 2 mg/kg): 186 min | Vd (PK in mouse; IV 2 mg/kg, read-out: Vdss): 3.08 L/kg | AUC(0-inf) (PK in mouse; PO 10 mg/kg): 349 ng·h/mL | Cmax (PK in mouse; PO 10 mg/kg): 249 ng/mL | bioavailability (PK in mouse; PO 10 mg/kg): 21.6% | half-life (PK in mouse; PO 10 mg/kg): 96 min | half-life ([12]; comparison table with WO2016/101885 compounds, read-out: Dog Liver Microsome T1/2): 7 min | half-life ([12]; liver microsome stability, read-out: Dog T1/2): 7.1 min
SMILES: CCC(C)(C)C(=O)N(O)Cc1ccccc1 [Compound 92, reference compound]
